Measurements as given in ChEMBL document CHEMBL4373743, “Selective apoptosis-inducing activity of synthetic hydrocarbon-stapled SOS1 helix with d-amino acids in H358 cancer cells expressing KRASG12C” (Eur J Med Chem, 2020).
Active and inactive are the calls of the source. The calls are words filed in the database; no cut-off is given here. Bridge positions count the residues as written; N and C are the ends. Square brackets hold non-standard residues; d marks the D form. Peptide text beside a SMILES is read from it. S5 = C=CCCC[C@](C)(N)C(=O)O

Assays:
[1] = system: A549; assay: Induction of apoptosis in human A549 cells harboring KRAS G12S mutant assessed as necrotic cells at 2.5 uM incubated for 24 hrs by Annexin V-FITC/PI staining based flow cytometric analysis (reference value: 0.16%); assay type: functional
[2] = system: A549; assay: Induction of apoptosis in human A549 cells harboring KRAS G12S mutant assessed as late apoptotic cells at 10 uM incubated for 24 hrs by Annexin V-FITC/PI staining based flow cytometric analysis (reference value: 25.4%); assay type: functional
[3] = system: NCI-H358; assay: Induction of apoptosis in human NCI-H358 cells harboring KRAS G12C mutant assessed as increase in bax protein level at 40 uM incubated for 24 hrs by Western blot analysis; assay type: functional, cell-based
[4] = system: GTPase KRas (Homo sapiens), P01116 [G12C]; assay: Binding affinity to biotinylated N-terminal His6-tagged recombinant KRAS G12C mutant (unknown origin) assessed as dissociation constant by BLI method
Sequence of GTPase KRas (Homo sapiens), P01116 [G12C] (P01116 whole entry G12C): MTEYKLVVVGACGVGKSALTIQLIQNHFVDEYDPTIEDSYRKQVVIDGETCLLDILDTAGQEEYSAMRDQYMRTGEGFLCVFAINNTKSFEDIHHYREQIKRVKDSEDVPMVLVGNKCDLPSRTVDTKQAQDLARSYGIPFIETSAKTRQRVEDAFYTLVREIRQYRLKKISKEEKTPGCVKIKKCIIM

[5] = system: NCI-H358; assay: Induction of apoptosis in human NCI-H358 cells harboring KRAS G12C mutant assessed as early apoptotic cells at 2.5 uM incubated for 24 hrs by Annexin V-FITC/PI staining based flow cytometric analysis (reference value: 4.34%); assay type: functional
[6] = system: A549; assay: Induction of apoptosis in human A549 cells harboring KRAS G12S mutant assessed as increase in bax protein level at 40 uM incubated for 24 hrs by Western blot analysis; assay type: functional, cell-based
[7] = system: NCI-H358; assay: Induction of apoptosis in human NCI-H358 cells harboring KRAS G12C mutant assessed as necrotic cells at 10 uM incubated for 24 hrs by Annexin V-FITC/PI staining based flow cytometric analysis (reference value: 0.28%); assay type: functional
[8] = system: A549; assay: Induction of apoptosis in human A549 cells harboring KRAS G12S mutant assessed as decrease in bcl2 protein level at 40 uM incubated for 24 hrs by Western blot analysis; assay type: functional, cell-based
[9] = system: NCI-H358; assay: Antiproliferative activity against human NCI-H358 cells harboring KRAS G12C mutant incubated for 24 hrs by MTT assay; assay type: functional, cell-based
[10] = system: NCI-H358; assay: Induction of apoptosis in human NCI-H358 cells harboring KRAS G12C mutant assessed as late apoptotic cells at 10 uM incubated for 24 hrs by Annexin V-FITC/PI staining based flow cytometric analysis (reference value: 28.2%); assay type: functional
[11] = system: A549; assay: Induction of cell cycle arrest in human A549 cells harboring KRAS G12S mutant assessed as as reduction in cyclin B1 protein expression at 40 uM incubated for 24 hrs by Western blot analysis; assay type: functional, cell-based
[12] = system: A549; assay: Induction of apoptosis in human A549 cells harboring KRAS G12S mutant assessed as early apoptotic cells at 20 uM incubated for 24 hrs by Annexin V-FITC/PI staining based flow cytometric analysis (reference value: 6.09%); assay type: functional
[13] = system: GTPase KRas (Homo sapiens), P01116 [G12C]; assay: Inhibition of mant-GDP bound N-terminal His6-tagged recombinant KRAS G12C mutant (unknown origin) by fluorescence based assay
[14] = system: NCI-H358; assay: Induction of apoptosis in human NCI-H358 cells harboring KRAS G12C mutant incubated for 24 hrs by Annexin V-FITC/PI staining based flow cytometric analysis; assay type: functional, cell-based
[15] = system: A549; assay: Induction of apoptosis in human A549 cells harboring KRAS G12S mutant assessed as increase in caspase3 protein level at 40 uM incubated for 24 hrs by Western blot analysis; assay type: functional, cell-based
[16] = system: NCI-H358; assay: Induction of apoptosis in human NCI-H358 cells harboring KRAS G12C mutant assessed as late apoptotic cells at 20 uM incubated for 24 hrs by Annexin V-FITC/PI staining based flow cytometric analysis (reference value: 28.2%); assay type: functional
[17] = system: NCI-H358; assay: Induction of cell cycle arrest in human NCI-H358 cells harboring KRAS G12C mutant assessed as accumulation at G2/M phase at 10 to 40 uM incubated for 24 hrs by PI staining based flow cytometric analysis (reference value: 11.08%); assay type: functional
[18] = target: GTPase KRas (Homo sapiens, UniProt P01116, G12C); assay: Binding affinity to biotinylated N-terminal His6-tagged recombinant KRAS G12C mutant (unknown origin) by BLI method
Sequence of GTPase KRas (P01116 whole entry G12C): as above

[19] = system: A549; assay: Induction of cell cycle arrest in human A549 cells harboring KRAS G12S mutant assessed as accumulation at G2/M phase at 10 to 40 uM incubated for 24 hrs by PI staining based flow cytometric analysis; assay type: functional
[20] = system: NCI-H358; assay: Induction of apoptosis in human NCI-H358 cells harboring KRAS G12C mutant assessed as viable cells at 2.5 uM incubated for 24 hrs by Annexin V-FITC/PI staining based flow cytometric analysis (reference value: 67.2%); assay type: functional; conditions: NCI-H358, 24 h, read-out: Activity
[21] = system: A549; assay: Antiproliferative activity against human A549 cells harboring KRAS G12S mutant at 0.37 to 10 uM incubated for 24 hrs by MTT assay; assay type: functional, cell-based
[22] = system: NCI-H358; assay: Induction of cell cycle arrest in human NCI-H358 cells harboring KRAS G12C mutant assessed as accumulation at G2/M phase incubated for 24 hrs by PI staining based flow cytometric analysis; assay type: functional
[23] = system: A549; assay: Induction of apoptosis in human A549 cells harboring KRAS G12S mutant assessed as late apoptotic cells at 2.5 uM incubated for 24 hrs by Annexin V-FITC/PI staining based flow cytometric analysis (reference value: 25.4%); assay type: functional
[24] = system: NCI-H358; assay: Induction of cell cycle arrest in human NCI-H358 cells harboring KRAS G12C mutant assessed as reduction in CDK1 protein expression at 40 uM incubated for 24 hrs by Western blot analysis; assay type: functional, cell-based
[25] = system: NCI-H358; assay: Induction of apoptosis in human NCI-H358 cells harboring KRAS G12C mutant assessed as early apoptotic cells at 10 uM incubated for 24 hrs by Annexin V-FITC/PI staining based flow cytometric analysis (reference value: 4.34%); assay type: functional
[26] = system: A549; assay: Induction of apoptosis in human A549 cells harboring KRAS G12S mutant assessed as necrotic cells at 20 uM incubated for 24 hrs by Annexin V-FITC/PI staining based flow cytometric analysis (reference value: 0.16%); assay type: functional
[27] = system: NCI-H358; assay: Induction of apoptosis in human NCI-H358 cells harboring KRAS G12C mutant assessed as necrotic cells at 2.5 uM incubated for 24 hrs by Annexin V-FITC/PI staining based flow cytometric analysis (reference value: 0.28%); assay type: functional
[28] = system: NCI-H358; assay: Induction of apoptosis in human NCI-H358 cells harboring KRAS G12C mutant assessed as decrease in bcl2 protein level at 40 uM incubated for 24 hrs by Western blot analysis; assay type: functional, cell-based
[29] = system: A549; assay: Induction of apoptosis in human A549 cells harboring KRAS G12S mutant assessed as late apoptotic cells at 20 uM incubated for 24 hrs by Annexin V-FITC/PI staining based flow cytometric analysis (reference value: 25.4%); assay type: functional
[30] = system: A549; assay: Induction of apoptosis in human A549 cells harboring KRAS G12S mutant assessed as early apoptotic cells at 10 uM incubated for 24 hrs by Annexin V-FITC/PI staining based flow cytometric analysis (reference value: 6.09%); assay type: functional
[31] = system: GTPase KRas (Homo sapiens), P01116 [G12C]; assay: Binding affinity to biotinylated N-terminal His6-tagged recombinant KRAS G12C mutant (unknown origin) assessed as association constant by BLI method

Compound: CC[C@H](C)[C@H](NC(=O)CNC(=O)[C@H](Cc1ccccc1)NC(=O)[C@H](Cc1ccccc1)NC(=O)[C@H](CCCNC(=N)N)NC(=O)[C@H](CCCNC(=N)N)NC(C)=O)C(=O)N[C@@]1(C)CCC/C=C\CCC[C@@](C)(C(=O)N[C@@H](CC(C)C)C(=O)N[C@@H](CCCCN)C(=O)N[C@H](C(=O)N[C@@H](CCC(=O)O)C(=O)N[C@@H](CCC(=O)O)C(=O)NCC(=O)N[C@@H](CC(N)=O)C(=O)O)[C@@H](C)O)NC(=O)[C@H](CC(N)=O)NC(=O)[C@H](CC(=O)O)NC(=O)[C@H]([C@@H](C)O)NC(=O)[C@H](CC(C)C)NC(=O)[C@H](CC(=O)O)NC1=O (Ac-RRFFGI[S5]DLTDN[S5]LKTEEGN-OH; staple (Z) 7-13)
- Activity [1]: 0.4%
- Activity [2]: 30.1%
- Activity [3]: Active
- Kdiss [4]: 6.37 ×10⁻³ /s
- Activity [5]: 4.22%
- Activity [6]: inactive
- Activity [7]: 0.26%
- Activity [8]: inactive
- Activity [9]: Dose-dependent effect
- Activity [10]: 40.8%
- Activity [11]: inactive
- Activity [12]: 1.68%
- inhibition [13]: Dose-dependent effect
- Activity [14]: Dose-dependent effect
- Activity [15]: inactive
- Activity [16]: 46.6%
- Activity [17]: 34.4%
- Kd [18]: 0.87 µM
- Activity [19]: inactive
- viability at 2.5 µM [20]: 62.7%
- Activity [21]: inactive
- Activity [22]: Dose-dependent effect
- Activity [23]: 38.5%
- Activity [24]: Active
- Activity [25]: 6.37%
- Activity [26]: 0.33%
- Activity [27]: 0.14%
- Activity [28]: Active
- Activity [29]: 30.7%
- Activity [30]: 1.79%
- Ka [31]: 7.3 ×10³ /M.s
